In patent publication US6413983B1, “Benzopyranyl heterocycle derivatives, process for preparation thereof, and pharmaceutical compositions containing them” (Dongbu Hannong Chemical Co. Ltd., priority 2000, dated 2002):

Tests used:
in vivo = details: SD, rat, po, 1 g/kg
Protocol: In this test six-week old SPF SD rats were used with two rats assigned to each group. […] The dosing volume was 10 ml/kg. […] All survivors at the end of the observation period underwent laparotomy under ether anesthesia and the blood samples were taken from the abdominal aorta for hematological tests and biochemical analysis. After sacrificing the animals, autopsy was performed for macroscopic observation of the organs and tissues. Tissue samples of vital organs from macroscopic legion were removed and fixed in 10% neutral buffered formalin solution, then processed by standard procedures for histopathology and examined under light microscope.

[1] = test system: cerebral cortical neurons; assay: Protective activity for neuronal cells against iron-induced damage (LDH release); format: cell-based, rat; details: 30 μM compound, 50 uM FeSO4, 24 hours, LDH reduction rate vs control
Protocol: From the brains of 17-18 day-old rat embryos, cerebral cortical neurons were isolated and then, cultured at 37° C. for 7-9 days in a 5% CO2 incubator. The cortical cell cultures were washed twice with a minimum essential medium (MEM) to reduce the serum concentration to 0.2% and pre-treated for 30 min with 30 μM of each of test compounds. For the experiments, the test compounds were dissolved in DMSO and diluted in a medium. At this time, the final concentration of DMSO was not allowed to exceed 0.2%. For a control group, only vehicle was applied.
After the pre-treatment with test compounds or vehicle, FeSO4 was added to a final concentration of 50 uM, and the cultures were maintained for 24 hours in a CO2 incubator. During incubation, lactate dehydrogenase (LDH) was released into the medium upon neuronal death by the oxidative toxicity of iron. The extent of neuronal damage was assessed by measuring the amount of LDH released into the media. The protective effect of the compounds of interest on neurons was evaluated by calculating the LDH reduction rate of treatment group compared with that of the control group.

rat brain homogenate = assay: Inhibitory activity against iron-induced lipid peroxidation (MDA quantification); format: biochemical; details: 100 μM compound, 400 μM FeCl2, 37° C., 30 min, MDA reduction rate vs control
Protocol: The rat brain was homogenized in a Krebs buffer (15 mM HEPES, 10 mM glucose, 140 mM NaCl, 3.6 mM KCl, 1.5 mM CaCl2, 1.4 mM KH2PO4, 0.7 mM MgCl2, pH 7.4) and the supernatant separated by centrifugation at 12,000 rpm for 10 min was used for further experiments. FeCl2 was added to a final concentration of 400 μM in the brain homogenate which was then allowed to stand at 37° C. for 30 min for the facilitation of oxidation. Each of the test compounds was added at a concentration of 100 μM and vehicle was used as a control.
Iron facilitates the oxidation of the brain homogenate to produce malondialdehyde (MDA), a lipid peroxidation product. Thus, the lipid peroxidation was determined by MDA quantification. The inhibitory effect of the test compounds against the lipid peroxidation was evaluated by calculating MDA reduction rate of the test compounds compared with that of the control group.
Typically, the MDA quantification is achieved by reacting samples with 2-thiobarbituric acid (TBA) and measuring the absorbance at 530 nm. However, this method is unsuitable to treat samples on a large scale because of a boiling step. Thus, in this experiment, N-methyl-2-phenylindole was used instead of TBA. […] Bioxytech^R LPO-586 Kit was used for MDA quantification.

Structure (SMILES): COC(OC)[C@@]1(C)Oc2ccc([N+](=O)[O-])cc2[C@H](N2c3ccccc3C[C@H]2C(=O)OC(C)C)[C@H]1O [Example 10, 1-[(2S, 3R, 4S)-3,4-dihydro-2-dimethoxymethyl-3-hydroxy-2-methyl-6-nitro-2H-1-benzopyran-4-yl]-(2S)-2,3-dihydro-1H-indole-2-carboxylic acid isopropyl ester]
- LD50 (in vivo): > 1000 mg/kg

Structure (SMILES): CCCOC(=O)[C@H]1Cc2ccccc2N1[C@@H]1c2cc([N+](=O)[O-])ccc2O[C@@](C)(C(OC)OC)[C@H]1O [Example 34, 1[-(2R, 3S, 4R)-3,4-dihydro-2-dimethoxymethyl-3-hydroxy-2-methyl-6-nitro-2H-1-benzopyran-4-yl]-(2R)-2,3-dihydro-1H-indole-2-carboxylic acid n-propyl ester]
- LD50 (in vivo): > 1000 mg/kg

Structure (SMILES): CCOC(=O)[C@@H]1Cc2ccccc2N1[C@@H]1c2cc(N)ccc2O[C@](C)(C(OC)OC)[C@H]1O [Example 45, 1-[(2S, 3S, 4R)-6-amino-3,4-dihydro-2-dimethoxymethyl-3-hydroxy-2-methyl-2H-1-benzopyran-4-yl]-(2S)-2,3-dihydro-1H-indole-2-carboxylic acid ethyl ester]
- % Protection ([1]; listed as EX. 45): 96%
- % Inhibition (rat brain homogenate): 81%

Structure (SMILES): CCOC(=O)c1cc2ccccc2n1[C@H]1c2cc(N)ccc2O[C@](C)(C(OC)OC)[C@@H]1O [Example 52, 1-[(2S, 3R, 4S)-6-amino-3,4-dihydro-2-dimethoxymethyl-3-hydroxy-2-methyl-2H-1-benzopyran-4-yl]-1H-indole-2-carboxylic acid ethyl ester]
- % Protection [1]: 100%
- % Inhibition (rat brain homogenate; listed as EX. 52): 95%

Structure (SMILES): CCOC(=O)c1cc2ccccc2n1[C@@H]1c2cc(N)ccc2O[C@](C)(C(OC)OC)[C@H]1O [Example 53, 1-[(2S, 3S, 4R)-6-amino-3,4-dihydro-2-dimethoxymethyl-3-hydroxy-2-methyl-2H-1-benzopyran-4-yl]-1H-indole-2-carboxylic acid ethyl ester]
- % Protection ([1]; listed as EX. 53): 94%
- % Inhibition (rat brain homogenate; listed as EX. 53): 91%
